Reference: paper PMC12349723, “Computationally accelerated identification of P-glycoprotein inhibitors” (PLOS One, 2025)
Where “and” joins values, the source holds several entries; their conditions need not be identical. Identical values can stand only once.

How the values were obtained:
A2780 cells = experiment: MTT viability assay, parental A2780 cells, with or without PTX; type: cell-based, human; details: for Increase of PTX toxicity against parental A2780 cells: 15 µM compound with or without 500 nM PTX, 48 h, MTT; for Mean % Survival / % Survival (individual sample): A2780 cells; for Mean % Survival / viability at 15 µM: mean of 8 or 12 samples; for % Survival (individual sample): single samples; for viability at 15 µM: Homo sapiens, A2780, A2780 cells, read-out: Mean % Survival
Description: The chemotherapeutic sensitive DU145 human prostate cancer cells and the multidrug resistant sub-line, DU145-TXR, were generous gifts from Dr. Evan Keller (University of Michigan, Ann Arbor, MI). The MDR, P-gp overexpressing DU145-TXR cells were maintained under positive selection pressure by supplementing complete medium with 10 nM paclitaxel (Acros Organics, NJ). In addition to the aforementioned cell lines, the chemotherapeutic sensitive A2780 ovarian cancer cells (93112519, Sigma) and the multidrug resistant A2780-ADR (93112520, Sigma) were maintained in complete RPMI media consisting of RPMI-1640 with L-glutamine, 10% fetal bovine serum (FBS; Corning), 100 U/mL penicillin and 100 μg/mL streptomycin in a humidified incubator at 37 °C and 5% CO2. The MDR, P-gp overexpressing A2780-ADR cell line was maintained under positive selection pressure by supplementing complete medium with 100 nM doxorubicin (Fisher Scientific, NJ). The non-cancerous HFL1 (human lung fibroblast) cell line cell line was a generous gift from Dr. Robert Harrod (Southern Methodist University, Dallas, TX) and was maintained in complete F12K media consisting of F12K with 10% fetal bovine serum, 100 U/mL penicillin, and 100 µg/mL streptomycin (Gibco). Flasks and 96 well plates that were used with the non-cancerous line HFL1 were pre-treated with 0.1 mg/ml Collagen Type 1 (Gibco) and rinsed with PBS (Fisher).
Culture of the DU145, DU145-TXR, and HFL1 cell lines was performed as described in [8]. Culture of the A2780 and A2780-ADR cell lines was performed as described in [9]. MTT assays were performed as described in [8] with minor modifications. LC-MS/MS accumulation assays were performed as described in {Nanayakkara, 2018 #173} [9] with some modifications. […] The inhibitor concentration was lowered to 15 µM here, as the goal of the study was to identify compounds that were effective in reversing MDR at low concentrations, and to determine if the expanded virtual-assisted methods improved on our first-draft attempt. Compounds 56–98 were pre-screened using Resazurin cell viability assays: cells were incubated with 15 µM compound with or without 500 nM PTX for 48 hours, after which cell survival was assessed similar to [39]. Data represent the mean of two separate experiments, with n = 3 samples per experiment (n = 6 total) (S4 Table). The top performing compounds from this initial screen were re-tested with MTT viability assays against DU145-TXR cells, as described below.
MTT assays measure the reduction of yellow, water soluble 3-(4,5-dimethylthiazol-2-yl)-2,5-diphenyltetrazolium bromide (MTT) to blue, insoluble formazan crystals by cellular reductase processes in living cells. Cells were trypsinized from monolayers and seeded in complete medium in 96 well plates. Cancerous cell lines (DU145, DU145-TXR, A2780, A2780-ADR) were seeded at 3,000 cells per well in complete RPMI medium. The non-cancerous HFL1 line was seeded at 4,000 cells per well in complete F12K medium, in collagen-treated plates (Collagen Type 1, Gibco). Cells were incubated with experimental compounds for 48 hours at 37 °C and 5% CO2 in a humidified incubator. At 48 hours, MTT was added (20 µL/well of 5 mg/mL MTT in PBS) to each well. After incubation for 4 hours, the media was removed, and the formazan crystals were dissolved in 100 µL DMSO per well. Plates containing the semi-adherent A2780 or A2780-ADR lines were spun at 1400 rpm for 3 minutes prior to aspiration of media, and the addition of DMSO. Plates were shaken for 10 minutes at 500 rpm on an Orbital shaker (LabDoctor from MidSci, St Louis, MO). The absorbance was measured at 570 nm using a Bio-Tek Cytation 5 (Bio-Tek, Winooski, VT). The measured absorbance value was correlated with the number of metabolically active cells in that well, corrected for absorbance of media. […]

P-gp = target: T1, P-gp (Homo sapiens, UniProt P08183); experiment: LC-MS/MS intracellular accumulation assay with or without tariquidar (P-gp transport substrate test) in DU145-TXR cells; type: in vitro ADME; details: for P-gp transport substrate assessment: 5 µM compound with or without 500 nM tariquidar, LC-MS/MS
T1 construct: The MDR, P-gp overexpressing DU145-TXR cells were maintained under positive selection pressure; endogenous in cells; host or cells: DU145-TXR (paclitaxel-resistant sub-line of DU145 human prostate cancer cells)
T1 sequence (P08183 whole entry): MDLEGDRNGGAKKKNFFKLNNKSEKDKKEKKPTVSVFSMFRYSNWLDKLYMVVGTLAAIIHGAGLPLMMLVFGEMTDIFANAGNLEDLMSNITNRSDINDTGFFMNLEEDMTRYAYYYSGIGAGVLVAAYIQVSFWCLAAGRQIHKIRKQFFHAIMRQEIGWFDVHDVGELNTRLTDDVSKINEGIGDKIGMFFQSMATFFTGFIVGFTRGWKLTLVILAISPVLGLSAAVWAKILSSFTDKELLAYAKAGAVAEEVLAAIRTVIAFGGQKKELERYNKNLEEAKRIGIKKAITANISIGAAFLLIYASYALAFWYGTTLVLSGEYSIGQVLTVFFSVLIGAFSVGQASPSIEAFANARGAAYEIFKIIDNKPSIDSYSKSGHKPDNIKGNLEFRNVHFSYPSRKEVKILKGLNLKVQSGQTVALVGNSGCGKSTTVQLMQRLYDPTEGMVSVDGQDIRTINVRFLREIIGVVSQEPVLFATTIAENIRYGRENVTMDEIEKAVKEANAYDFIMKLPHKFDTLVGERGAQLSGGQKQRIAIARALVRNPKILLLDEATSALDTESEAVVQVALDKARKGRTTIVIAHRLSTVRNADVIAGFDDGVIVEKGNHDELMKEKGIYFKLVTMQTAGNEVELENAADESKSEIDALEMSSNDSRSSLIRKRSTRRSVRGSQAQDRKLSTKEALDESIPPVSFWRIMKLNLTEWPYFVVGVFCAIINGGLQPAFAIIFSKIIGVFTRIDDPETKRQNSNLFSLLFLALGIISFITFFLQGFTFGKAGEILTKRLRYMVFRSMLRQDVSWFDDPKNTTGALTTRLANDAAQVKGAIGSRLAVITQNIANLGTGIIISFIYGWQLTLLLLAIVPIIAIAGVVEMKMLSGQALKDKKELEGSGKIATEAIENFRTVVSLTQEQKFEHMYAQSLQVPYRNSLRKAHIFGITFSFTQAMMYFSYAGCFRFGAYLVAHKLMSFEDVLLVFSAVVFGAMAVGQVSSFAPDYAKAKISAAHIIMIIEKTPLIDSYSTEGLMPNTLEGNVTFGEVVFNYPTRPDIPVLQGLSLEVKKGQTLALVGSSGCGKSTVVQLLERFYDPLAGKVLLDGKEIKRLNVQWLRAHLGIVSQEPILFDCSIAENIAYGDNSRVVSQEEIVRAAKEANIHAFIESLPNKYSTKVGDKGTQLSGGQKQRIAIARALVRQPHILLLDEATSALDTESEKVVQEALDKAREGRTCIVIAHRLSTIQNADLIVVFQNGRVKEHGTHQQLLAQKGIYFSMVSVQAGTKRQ
Description: DU145-TXR cells were seeded at 350,000 cells per well in 6-well plates in complete RPMI medium. […] A full sample of DAU was also prepared for quantitative analysis. […] Media was removed with a glass vacuum aspirator. Cells were re-suspended and washed in 2mL of ice-cold Hank’s Balanced Salt Solution (HBSS, Gibco), and spun again at 2400 rpm. Cell lysates were diluted in 600 µL of ice-cold HBSS, flash-frozen in liquid nitrogen, and stored at −80 °C until analysis. LC-MS/MS intracellular accumulation assays were performed in collaboration with the Pharmacology Core at the University of Texas Southwestern Medical Center (UTSW). […] This method allowed us to quantify the change – if any – in the relative amount of compound present in the samples when TQR was added. An increase in the relative amount of compound indicates enhanced intracellular retention that compound. […] The “Internal Standard” (IS) is a known substance added in a constant amount to each sample. The “Peak Area”, expressed as “counts”, describes the number of MS/MS spectra from the experimental compound and serves as a measure of its relative abundance. […] These values allow a comparison of the relative abundance of compound between the “- TQR” and “+ TQR” samples, and to test for statistically significant differences. LC-MS/MS quantification was performed as follows. Cell lysate was aliquoted into Eppendorf tubes. In contrast to [9], blank cell lysates were not spiked with varying concentrations of each compound to create a standard curve, since compound amounts were normalized to abundance of the internal standard. […] The supernatant was then transferred to an HPCL vial, and subsequently analyzed using LC-MS/MS using a Sciex 4000QTRAP mass spectrometer coupled to a Shimadzu Prominence LC. […] The column flow rate was 1.5 ml/min using an Agilent C18 XDB, 5 micron packing 50 × 4.6 mm column. […] A BSA standard curve was then prepared in water and mixed using the same ratio. […] The ratio of Analyte to Internal Standard was normalized to the lysate content for each individual sample. […] Statistical significance was determined using a Student’s T Test in GraphPad Prism. We aimed to identify P-gp inhibitors that are not transport substrates of the pump itself. […] To test these predictions in vitro, liquid chromatography with tandem mass spectrometry (LC-MS/MS) was used to assess the intracellular accumulation of experimental compounds as described in [9]. […] The relative intracellular accumulation of each experimental compound was then assessed using LC-MS/MS. […] The P-gp substrate and chemotherapeutic daunorubicin (DAU) was used as a positive control for P-gp-mediated transport.

[1] = DU145-TXR, 5 µM compound, 2.5 h, with 500 nM tariquidar, mean ± SD, triplicate
[2] = DU145-TXR, 5 µM compound, 2.5 h, without tariquidar, mean ± SD, triplicate
[3] = significant difference = likely P-gp transport substrate

Row | SMILES | Increase of PTX toxicity against parental A2780 cells (A2780 cells) | Mean % Survival (A2780 cells; 15 µM compound + 500 nM PTX) [%] | % Survival (individual sample) (A2780 cells; 15 µM compound + 500 nM PTX) | % Survival (individual sample) (A2780 cells; 15 µM compound alone) [%] | viability at 15 µM (A2780 cells; 15 µM compound alone) [%] | P-gp transport substrate assessment (P-gp; DU145-TXR, 2.5 h) | Intracellular accumulation (normalized ratio of compound to internal standard), Trial 1, + TQR (P-gp; [1]) | Intracellular accumulation (normalized ratio of compound to internal standard), Trial 2, + TQR (P-gp; [1]) | Intracellular accumulation (normalized ratio of compound to internal standard), Trial 1, - TQR (P-gp; [2]) | Intracellular accumulation (normalized ratio of compound to internal standard), Trial 2, - TQR (P-gp; [2]) | P (- TQR vs + TQR), Trial 1 (P-gp; Student's T test of the mean) | P (- TQR vs + TQR), Trial 2 (P-gp; Student's T test of the mean) | Significance of accumulation with tariquidar, Trial 1 (P-gp; [3]) | Significance of accumulation with tariquidar, Trial 2 (P-gp; [3]) | Intracellular accumulation (normalized ratio of compound to internal standard), Trial 3, + TQR (P-gp; [1]) | Intracellular accumulation (normalized ratio of compound to internal standard), Trial 3, - TQR (P-gp; [2]) | P (- TQR vs + TQR), Trial 3 (P-gp; Student's T test of the mean) | Significance of accumulation with tariquidar, Trial 3 (P-gp; [3])
1 | Cc1onc(-c2ccccc2)c1-c1nnc(Cn2cnc3c(oc4ccccc43)c2=O)o1 [Compound 78, Cc1onc(c1-c1nnc(Cn2cnc3c4ccccc4oc3c2=O)o1)-c1ccccc1] | did not greatly increase the toxicity of PTX against the parental A2780 cells | 13.4 | 8% and 18% | 110 | 91.4 | unlikely to be transport substrates of P-gp | 0.001 ± 0.000 | 0.001 ± 0.000 | 0.001 ± 0.000 | 0.001 ± 0.000 |  |  |  |  |  |  |  | 
2 | O=S(=O)(CCSc1nnc(-c2ccccc2)c2ccccc12)c1ccccc1 [Compound 96, O=S(=O)(CCSc1nnc(-c2ccccc2)c2ccccc12)c1ccccc1] | did not greatly increase the toxicity of PTX against the parental A2780 cells | 13.9 | 19% and 20% |  | 76.5 | unlikely to be transport substrates of P-gp | 0.092 ± 0.036 | 0.163 ± 0.032 | 0.087 ± 0.009 | 0.121 ± 0.005 | 0.8 | 0.09 | N.S. (P > 0.05 = not significant (N.S.)) | N.S. (P > 0.05 = not significant (N.S.)) |  |  |  | 
3 | O=S(=O)(Cc1nc2ccccc2n1CC(O)c1ccc(Cl)cc1)c1ccccc1 (stereo not shown) [Compound 97, OC(Cn1c(CS(=O)(=O)c2ccccc2)nc2ccccc12)c1ccc(Cl)cc1] | did not greatly increase the toxicity of PTX against the parental A2780 cells | 13.0 | 8% and 19% |  | 89.8 | unlikely to be transport substrates of P-gp | 0.08 ± 0.03 | 0.10 ± 0.02 | 0.07 ± 0.02 | 0.10 ± 0.02 | 0.7 | > 1 | N.S. (P > 0.05 = not significant (N.S.)) | N.S. (P > 0.05 = not significant (N.S.)) |  |  |  | 
4 | COc1cccc(N2CCN(c3ccc4nnc(CCC(=O)Nc5ccc(F)c(F)c5)n4n3)CC2)c1 [Compound 101, COc1cccc(c1)N1CCN(CC1)c1ccc2nnc(CCC(=O)Nc3ccc(F)c(F)c3)n2n1] | did not greatly increase the toxicity of PTX against the parental A2780 cells | 14.3 |  | 64 | 91.9 | unlikely to be transport substrates of P-gp | 12.03 ± 2.45 | 22.88 ± 2.92 | 11.86 ± 1.16 | 21.17 ± 3.59 | 0.9 | 0.6 | N.S. (P > 0.05 = not significant (N.S.)) | N.S. (P > 0.05 = not significant (N.S.)) |  |  |  | 
5 | Cc1ccc(-c2noc(-c3cn(Cc4ccc(NS(=O)(=O)c5ccccc5F)cc4)cn3)n2)cc1 [Compound 103, Cc1ccc(cc1)-c1noc(n1)-c1cn(Cc2ccc(NS(=O)(=O)c3ccccc3F)cc2)cn1] | did not greatly increase the toxicity of PTX against the parental A2780 cells | 13.6 | 10% and 18% and 19% | 63 | 52.9 | potential P-gp transport substrates | 5.61 ± 1.34 | 3.75 ± 0.34 | 5.13 ± 0.6 | 2.63 ± 0.52 | 0.6 | 0.04 | N.S. (P > 0.05 = not significant (N.S.)) | * (P < 0.05 = *) | 3.73 ± 0.15 | 3.21 ± 0.23 | 0.03 | * (P < 0.05 = *)
